Reference: patent US11066446B2, “Cyclic peptide, affinity chromatography support, labeled antibody, antibody drug conjugate, and pharmaceutical preparation” (FUJIFILM Corporation, priority 2016, dated 2021)
Starred links: 1 amine or outer side, 2 acyl side, 3 side chain; linkers in the order of their positions; H or OH if unused. Positions of bridges follow the written chain, without caps; N, C: chain ends. Non-standard residues stand in square brackets, D forms with d. Residues, ends and D or L forms follow the SMILES beside them. Primed or numbered codes have the meaning given here. Triazole bridges read from a SMILES are 1,4-linked. No end group written: not given here. Bpg″ = L-bishomopropargylglycine residue, C#CCCC[C@H](N[*:1])C(=O)[*:2]; Lys(N3) = [N-]=[N+]=NCCCC[C@H](N)C(=O)O; Orn(N3) = [N-]=[N+]=NCCC[C@H](N)C(=O)O; Dap(N3) = [N-]=[N+]=NC[C@H](N)C(=O)O; Aha = [N-]=[N+]=NCC[C@H](N)C(=O)O; Bpg = L-bishomopropargylglycine; Hpra = C#CCC[C@H](N)C(=O)O

Experiments:
[1] = Stability in human plasma (residual rate by mass spectrometry); details: 20 minutes at room temperature, 0-minute sample as 100%
Experimental: After 20 minutes, 100 μL of methanol (manufactured by Wako Pure Chemical Industries, Ltd.) was added thereto such that the reaction stopped. After being stirred, the solution was subjected to centrifugation, and the supernatant was collected and named 20-minute sample. Meanwhile, 100 μL of methanol was added to 20 μL of the human plasma, 2 μL of the aqueous solution of the cyclic peptide was then added thereto, the solution was stirred and subjected to centrifugation, and the supernatant was collected. The collected supernatant was named 0-minute sample.
By regarding the quantified value obtained from the 0-minute sample as 100%, the quantified value obtained from the 20-minute sample was calculated as a residual rate.

[2] = tested on: human immunoglobulin G (IgG) antibodies; assay: Relative binding activity to human IgG antibodies by surface plasmon resonance on immobilized sensor chip; details: SPR (Biacore 3000, CM5 chip), 3,000 nM human IgG for 10 minutes at 25° C., relative to the cyclic peptide of Comparative Example 1 regarded as 1
Experimental: A commercially available CM5 (carboxymethyl dextran introduction-type, manufactured by GE Healthcare) sensor chip was set in Biacore 3000 (Biacore is a registered trademark) as a surface plasmon resonance device manufactured by GE Healthcare, a 4-(2-hydroxyethyl)-1-piperazineethanesulfonic acid (HEPES) buffer solution (20 mM HEPES-HCl, 150 mM NaCl, pH 7.4) for surface plasmon resonance (SPR) was stabilized at a flow rate of 10 μL/min, and 70 μL of an aqueous mixed solution of 0.2 M 1-(3-Dimethylaminopropyl)-3-ethylcarbodiimide (EDC) and […] of N-Hydroxysuccinimide (NHS) were injected thereinto. Thereafter, 100 μL of a sample solution of the cyclic peptide 1, which was diluted with a HEPES buffer solution at 0.2 g/L and treated with a polytetrafluoroethylene (PTFE) filter (manufactured by Advantec MFS, Inc.) having a diameter of 0.20 μm, was supplied to the sensor chip. Then, a blocking treatment was then performed on the sample solution by using an aqueous ethanolamine solution, and the sensor chip was washed with an aqueous sodium hydroxide solution, thereby performing immobilization. Likewise, 70 μL of an aqueous mixed solution of 0.2 M EDC and 0.04 M NHS was added to the same sensor chip without immobilizing the sample in another flow channel of the sensor chip, and then the blocking treatment and the washing treatment were performed. Hereinafter, the obtained immobilized sensor chip will be referred to as “immobilized sensor chip A”.
At 25° C., 3,000 nM of human immunoglobulin G (IgG) antibodies were added for 10 minutes to the immobilized sensor chip A prepared in (2) described above. Then, the antibody binding amount in the flow channel in which the cyclic peptide was immobilized immediately after the addition and in the flow channel in which the cyclic peptide was not immobilized was measured. From the difference in the antibody binding amount between the flow channel in which the cyclic peptide was immobilized and the flow channel in which the cyclic peptide was not immobilized and the amount of the immobilized cyclic peptide, the activity of the cyclic peptide was calculated. Furthermore, by regarding the activity of a cyclic peptide 5 in Comparative Example 1 as 1, the relative binding activity with respect to the human IgG antibodies was calculated.

[3] = Chemical resistance: rate of change in antibody binding amount of immobilized support before and after alkali treatment; assay type: physicochemical; details: peptide-immobilized HiTrap support; human IgG binding amount at 10% leak, before and after 0.05 M aqueous NaOH for 6 hours at 25° C.
Experimental: 1 mL of HiTrap NHS-activated HP Columns (coupling columns for ligand immobilization, manufactured by GE Healthcare) (HITRAP is a registered trademark) was reacted with 1 mL of 10 mg/mL cyclic peptide solution, which was prepared by dissolving the cyclic peptide 1 in an immobilization buffer (10% DMSO in 200 mM NaHCO3, 500 mM NaCl, pH 8.3), for 1 hour at 25° C. The reaction product was blocked by an aqueous ethanolamine solution and washed, thereby obtaining a cyclic peptide 1-immobilized support. Hereinafter, the obtained immobilized support will be referred to as “immobilized support A”.
The immobilized support A prepared in (4) described above was connected to a chromatography system AKTA avant 25 (manufactured by GE Healthcare) (AKTAAVANT is a registered trademark), and the antibody binding amount was measured. The columns were equilibrated using an equilibration solution (20 mM phosphoric acid buffer, 150 mM NaCl, pH 7.4), and then 20 mL of a 5 mg/mL human IgG antibody standard buffer solution (20 mM phosphoric acid buffer, 150 mM NaCl, pH 7.4) was injected thereinto at a flow rate of 0.21 mL/min. Thereafter, the columns were washed with 5 mL of a postloading wash solution (20 mM phosphoric acid buffer, 150 mM NaCl, pH 7.4) caused to flow at the same flow rate and then washed with 5 mL of a pre-elution wash solution (20 mM phosphoric acid buffer, 1 M NaCl, pH 7.4) at the same flow rate. Then, 5 mL of an elution solution (100 mM citric acid buffer, pH 3.2) was caused to flow at the same flow rate. Subsequently, 5 mL of a cleaning in place (CIP) solution (0.1 M sodium hydroxide) was caused to flow at the same flow rate, and then 5 mL of a reequilibration solution (20 mM phosphoric acid buffer, 150 mM NaCl, pH 7.4) was caused to flow at the same flow rate. At this time, by using an immunoglobulin G (IgG) elution peak obtained by monitoring absorbance at 280 nm, the amount of antibodies binding to the support until 10% of the antibody stock solution leaked out of the support was measured as the antibody binding amount. Then, the immobilized support A was filled with a 0.05 M aqueous NaOH solution for 6 hours at 25° C. and left to stand, the antibody binding amount of the support was then measured in the same manner, and a rate of change in the binding amount was calculated from the antibody binding amount before and after the alkali treatment.

Compound | Stability in plasma (residual rate) [1] | Relative binding activity [2] | Chemical resistance (rate of change in the binding amount) [3] | Relative binding activity ([2]; listed as Example 14)
CC(C)C[C@@H]1NC(=O)[C@H](CCC(=O)O)NC(=O)CNC(=O)[C@H](CCCNC(=N)N)NC(=O)[C@H](Cc2c[nH]cn2)NC(=O)[C@H](Cc2ccc(O)cc2)NC(=O)[C@H](C)NC(=O)[C@@H](NC(=O)[C@@H](N)CC(=O)O)CCC(=O)NCCCC[C@@H](C(=O)N[C@H](C(=O)N[C@@H](CCCCN)C(=O)N[C@@H](CCCCN)C(=O)O)[C@@H](C)O)NC(=O)[C@H](Cc2c[nH]c3ccccc23)NC(=O)[C@H](C(C)C)NC1=O [Cyclic peptide 17, Asp-[Glu]-Ala-Tyr-His-Arg-Gly-Glu-Leu-Val-Trp-[Lys]-Thr-Lys-Lys, reference compound] (HELM PEPTIDE1{D.E.A.Y.H.R.G.E.L.V.W.K.T.K.K}$PEPTIDE1,PEPTIDE1,2:R3-12:R3$$$V2.0; N-terminus and C-terminus assumed) | E (The rate of change in the binding amount was equal to or lower than 50%) | – | – | –
Asp-[Lys(N3)]-Ala-Tyr-His-Arg-Gly-Glu-Leu-Val-Trp-[Bpg]-Thr-Lys-Lys (D[Lys(N3)]AYHRGELVW[Bpg]TKK; triazole 2-12) [Cyclic peptide 1] | A (The rate of change in the binding amount was higher than 90%) | A (The relative binding activity was higher than 800% of the binding activity of the cyclic peptide 5) | B (The rate of change in the binding amount was higher than 80% and equal to or lower than 90%) | –
CC(C)C[C@@H]1NC(=O)[C@H](Cc2c[nH]cn2)NC(=O)[C@H](Cc2ccc(O)cc2)NC(=O)[C@H](C)NC(=O)[C@@H](NC(=O)[C@@H](N)CC(=O)O)CCc2cn(nn2)C[C@@H](C(=O)N[C@H](C(=O)N[C@@H](CCCCN)C(=O)N[C@@H](CCCCN)C(=O)O)[C@@H](C)O)NC(=O)[C@H](Cc2c[nH]c3ccccc23)NC(=O)[C@H](C(C)C)NC(=O)[C@H](CC(C)C)NC(=O)[C@H](CCC(=O)O)NC(=O)CNC1=O [Cyclic peptide 4, Asp-[Hpg]-Ala-Tyr-His-Leu-Gly-Glu-Leu-Val-Trp-[Ala(N3)]-Thr-Lys-Lys] (H-D[Hpra]AYHLGELVW[Dap(N3)]TKK-OH; triazole 2-12; N-terminus and C-terminus assumed) | A (The rate of change in the binding amount was higher than 90%) | – | – | –
Asp-[Bpg]-Ala-Tyr-His-Leu-Gly-Glu-Leu-Val-Trp-[Nva(N3)]-Thr-Lys-Lys (D[Bpg″]AYHLGELVW[Orn(N3)]TKK; triazole 2-12; also: Xaa2 derived from gamma-azido-L-homoalanine) [Cyclic peptide 14, [Bpg] and [Nva(N3)] cross-linked through a triazole bond] | – | B (The relative binding activity was higher than 400% and equal to or lower than 800% of the binding activity of the cyclic peptide 5) | A (The rate of change in the binding amount was higher than 90%) | C or a higher grade
Asp-[Lys(N3)]-Ala-Tyr-His-Leu-Gly-Glu-Leu-Val-Trp-[Bpg]-Thr-Lys-Lys (D[Lys(N3)]AYHLGELVW[Bpg]TKK; triazole 2-12) [Cyclic peptide 2] | A (The rate of change in the binding amount was higher than 90%) | A (The relative binding activity was higher than 800% of the binding activity of the cyclic peptide 5) | A (The rate of change in the binding amount was higher than 90%) | –
Asp-[Abu(N3)]-Ala-Tyr-His-Leu-Gly-Glu-Leu-Val-Trp-[Hpg]-Thr-Lys-Lys (D[Aha]AYHLGELVW[Hpra]TKK; triazole 2-12) [Cyclic peptide 11, [Abu(N3)] and [Hpg] cross-linked through a triazole bond] | – | A (The relative binding activity was higher than 800% of the binding activity of the cyclic peptide 5) | A (The rate of change in the binding amount was higher than 90%) | –
Lys-Lys-Lys-Asp-[Hpg]-Ala-Tyr-His-Leu-Gly-Glu-Leu-Val-Trp-[Ala(N3)]-Thr (KKKD[Hpra]AYHLGELVW[Dap(N3)]T; triazole 5-15) [Cyclic peptide 5, [Hpg] and [Ala(N3)] cross-linked through a triazole bond] | – | A (The relative binding activity was higher than 800% of the binding activity of the cyclic peptide 5) | A (The rate of change in the binding amount was higher than 90%) | –
